Assays:
Format in all cases: functional
Pseudomonas fluorescens [1] = assay: Growth inhibition of Pseudomonas fluorescens NCIM 2059 at 30 ug/ml measured after 8 hrs relative to control; conditions: NCIM 2059, 8 h, read-out: GI
Escherichia coli [2] = assay: Growth inhibition of Escherichia coli NCIM 2576 at 30 ug/ml measured after 8 hrs relative to control; conditions: NCIM 2576, 8 h, read-out: GI
Staphylococcus aureus [3] = assay: Growth inhibition of Staphylococcus aureus NCIM 2602 at 1 ug/ml measured after 12 hrs relative to control; conditions: NCIM 2602, 12 h, read-out: GI
[4] = test system: Mycobacterium tuberculosis; assay: Growth inhibition of Mycobacterium bovis BCG ATCC 35743 at 30 ug/ml by nitrate reductase based two-fold dilution assay relative to control; conditions: BCG str. ATCC 35743, read-out: GI
Escherichia coli [5] = assay: Growth inhibition of Escherichia coli NCIM 2576 at 1 ug/ml measured after 8 hrs relative to control; conditions: NCIM 2576, 8 h, read-out: GI
Bacillus subtilis [6] = assay: Antibacterial activity against Bacillus subtilis NCIM 2162 measured after 12 hrs; conditions: NCIM 2162, 12 h
[7] = test system: Mycobacterium tuberculosis; assay: Growth inhibition of Mycobacterium bovis BCG ATCC 35743 at 1 ug/ml by nitrate reductase based two-fold dilution assay relative to control; conditions: BCG str. ATCC 35743, read-out: GI
Bacillus subtilis [8] = assay: Growth inhibition of Bacillus subtilis NCIM 2162 at 30 ug/ml measured after 12 hrs relative to control; conditions: NCIM 2162, 12 h, read-out: GI
Escherichia coli [9] = assay: Antibacterial activity against Escherichia coli NCIM 2576 measured after 8 hrs; conditions: NCIM 2576, 8 h
[10] = test system: Mycobacterium tuberculosis; assay: Antitubercular activity against Mycobacterium tuberculosis H37Ra ATCC 25177 dormant stage by XTT dye based two-fold dilution method
Staphylococcus aureus [11] = assay: Growth inhibition of Staphylococcus aureus NCIM 2602 at 30 ug/ml measured after 12 hrs relative to control; conditions: NCIM 2602, 12 h, read-out: GI
[12] = test system: Mycobacterium tuberculosis; assay: Growth inhibition of Mycobacterium tuberculosis H37Ra ATCC 25177 at 10 ug/ml by XTT dye based two-fold dilution method relative to control; conditions: read-out: GI
[13] = test system: Mycobacterium tuberculosis; assay: Growth inhibition of Mycobacterium tuberculosis H37Ra ATCC 25177 at 30 ug/ml by XTT dye based two-fold dilution method relative to control; conditions: read-out: GI
Pseudomonas fluorescens [14] = assay: Growth inhibition of Pseudomonas fluorescens NCIM 2059 at 1 ug/ml measured after 8 hrs relative to control; conditions: NCIM 2059, 8 h, read-out: GI
Pseudomonas fluorescens [15] = assay: Antibacterial activity against Pseudomonas fluorescens NCIM 2059 measured after 8 hrs; conditions: NCIM 2059, 8 h
Escherichia coli [16] = assay: Growth inhibition of Escherichia coli NCIM 2576 at 10 ug/ml measured after 8 hrs relative to control; conditions: NCIM 2576, 8 h, read-out: GI
Staphylococcus aureus [17] = assay: Antibacterial activity against Staphylococcus aureus NCIM 2602 measured after 12 hrs; conditions: NCIM 2602, 12 h
Pseudomonas fluorescens [18] = assay: Growth inhibition of Pseudomonas fluorescens NCIM 2059 at 10 ug/ml measured after 8 hrs relative to control; conditions: NCIM 2059, 8 h, read-out: GI
Bacillus subtilis [19] = assay: Growth inhibition of Bacillus subtilis NCIM 2162 at 10 ug/ml measured after 12 hrs relative to control; conditions: NCIM 2162, 12 h, read-out: GI
[20] = test system: Mycobacterium tuberculosis; assay: Antitubercular activity against Mycobacterium bovis BCG ATCC 35743 dormant stage by nitrate reductase based two-fold dilution assay; conditions: BCG str. ATCC 35743
[21] = test system: Mycobacterium tuberculosis; assay: Growth inhibition of Mycobacterium tuberculosis H37Ra ATCC 25177 at 3 ug/ml by XTT dye based two-fold dilution method relative to control; conditions: read-out: GI
Staphylococcus aureus [22] = assay: Growth inhibition of Staphylococcus aureus NCIM 2602 at 10 ug/ml measured after 12 hrs relative to control; conditions: NCIM 2602, 12 h, read-out: GI
[23] = test system: Mycobacterium tuberculosis; assay: Growth inhibition of Mycobacterium bovis BCG ATCC 35743 at 10 ug/ml by nitrate reductase based two-fold dilution assay relative to control; conditions: BCG str. ATCC 35743, read-out: GI
Bacillus subtilis [24] = assay: Growth inhibition of Bacillus subtilis NCIM 2162 at 1 ug/ml measured after 12 hrs relative to control; conditions: NCIM 2162, 12 h, read-out: GI

Cc1nc(-c2ccccc2)oc1-c1csc(-c2ccc(Br)cc2)n1
inhibition of growth at 30 µg/mL (Pseudomonas fluorescens [1]): 85.2%
inhibition of growth at 30 µg/mL (Escherichia coli [2]): 85.6%
inhibition of growth at 1 µg/mL (Staphylococcus aureus [3]): 67.8%
inhibition of growth at 30 µg/mL [4]: 39%
inhibition of growth at 1 µg/mL (Escherichia coli [5]): 67.7%
MIC (Bacillus subtilis [6]): > 100 µM
inhibition of growth at 1 µg/mL [7]: 31%
inhibition of growth at 30 µg/mL (Bacillus subtilis [8]): 88%
MIC (Escherichia coli [9]): > 100 µM
IC50 [10]: > 100 µM
MIC90 [10]: > 100 µM
inhibition of growth at 30 µg/mL (Staphylococcus aureus [11]): 85.2%
inhibition of growth at 10 µg/mL [12]: 17%
inhibition of growth at 30 µg/mL [13]: 33%
inhibition of growth at 1 µg/mL (Pseudomonas fluorescens [14]): 64.5%
MIC (Pseudomonas fluorescens [15]): > 100 µM
inhibition of growth at 10 µg/mL (Escherichia coli [16]): 79.1%
MIC (Staphylococcus aureus [17]): > 100 µM
inhibition of growth at 10 µg/mL (Pseudomonas fluorescens [18]): 74.2%
inhibition of growth at 10 µg/mL (Bacillus subtilis [19]): 74.3%
IC50 [20]: > 100 µM
MIC90 [20]: > 100 µM
inhibition of growth at 3 µg/mL [21]: 11%
inhibition of growth at 10 µg/mL (Staphylococcus aureus [22]): 72.2%
inhibition of growth at 10 µg/mL [23]: 36%
inhibition of growth at 1 µg/mL (Bacillus subtilis [24]): 65%

Cc1nc(-c2ccc(F)cc2)oc1-c1csc(-c2ccccc2)n1
inhibition of growth at 30 µg/mL (Pseudomonas fluorescens [1]): 53.1%
inhibition of growth at 30 µg/mL (Escherichia coli [2]): 50.7%
inhibition of growth at 1 µg/mL (Staphylococcus aureus [3]): 24%
inhibition of growth at 30 µg/mL [4]: 33%
inhibition of growth at 1 µg/mL (Escherichia coli [5]): 21.3%
MIC (Bacillus subtilis [6]): > 100 µM
inhibition of growth at 1 µg/mL [7]: 28%
inhibition of growth at 30 µg/mL (Bacillus subtilis [8]): 53.3%
MIC (Escherichia coli [9]): > 100 µM
IC50 [10]: > 100 µM
MIC90 [10]: > 100 µM
inhibition of growth at 30 µg/mL (Staphylococcus aureus [11]): 58.8%
inhibition of growth at 10 µg/mL [12]: 13%
inhibition of growth at 30 µg/mL [13]: 31%
inhibition of growth at 1 µg/mL (Pseudomonas fluorescens [14]): 22.4%
MIC (Pseudomonas fluorescens [15]): > 100 µM
inhibition of growth at 10 µg/mL (Escherichia coli [16]): 47.8%
MIC (Staphylococcus aureus [17]): > 100 µM
inhibition of growth at 10 µg/mL (Pseudomonas fluorescens [18]): 41.9%
inhibition of growth at 10 µg/mL (Bacillus subtilis [19]): 47.8%
IC50 [20]: > 100 µM
MIC90 [20]: > 100 µM
inhibition of growth at 3 µg/mL [21]: 13%
inhibition of growth at 10 µg/mL (Staphylococcus aureus [22]): 40.7%
inhibition of growth at 10 µg/mL [23]: 32%
inhibition of growth at 1 µg/mL (Bacillus subtilis [24]): 21%

Cc1nc(-c2ccccc2)oc1-c1csc(-c2cccc(Cl)c2)n1
inhibition of growth at 30 µg/mL (Pseudomonas fluorescens [1]): 65.8%
inhibition of growth at 30 µg/mL (Escherichia coli [2]): 68.2%
inhibition of growth at 1 µg/mL (Staphylococcus aureus [3]): 20.5%
inhibition of growth at 30 µg/mL [4]: 40%
inhibition of growth at 1 µg/mL (Escherichia coli [5]): 24.9%
MIC (Bacillus subtilis [6]): > 100 µM
inhibition of growth at 1 µg/mL [7]: 26%
inhibition of growth at 30 µg/mL (Bacillus subtilis [8]): 69.8%
MIC (Escherichia coli [9]): > 100 µM
IC50 [10]: > 100 µM
MIC90 [10]: > 100 µM
inhibition of growth at 30 µg/mL (Staphylococcus aureus [11]): 69.4%
inhibition of growth at 10 µg/mL [12]: 14%
inhibition of growth at 30 µg/mL [13]: 27%
inhibition of growth at 1 µg/mL (Pseudomonas fluorescens [14]): 23.5%
MIC (Pseudomonas fluorescens [15]): > 100 µM
inhibition of growth at 10 µg/mL (Escherichia coli [16]): 51.8%
MIC (Staphylococcus aureus [17]): > 100 µM
inhibition of growth at 10 µg/mL (Pseudomonas fluorescens [18]): 56.2%
inhibition of growth at 10 µg/mL (Bacillus subtilis [19]): 57.3%
IC50 [20]: > 100 µM
MIC90 [20]: > 100 µM
inhibition of growth at 3 µg/mL [21]: 12%
inhibition of growth at 10 µg/mL (Staphylococcus aureus [22]): 55.6%
inhibition of growth at 10 µg/mL [23]: 26%
inhibition of growth at 1 µg/mL (Bacillus subtilis [24]): 24.8%
